Source: US12023319B2, “Carboxylic acid aromatic amides” (priority 2016, dated 2024)
pIC50: −log10 of the molar value.

What was measured:
[1] = molecular target: T1, human Bradykinin B1 receptor (Homo sapiens, UniProt P46663); assay: Calcium flux assay (FLIPR), CHO-K1 cells expressing human Bradykinin B1 receptor, absence of 0.1% BSA (hB1 free IC50); assay type: cell-based; settings: absence of 0.1% BSA in assay buffer
T1 construct: host or cells: CHO-K1
T1 sequence (P46663 1-353): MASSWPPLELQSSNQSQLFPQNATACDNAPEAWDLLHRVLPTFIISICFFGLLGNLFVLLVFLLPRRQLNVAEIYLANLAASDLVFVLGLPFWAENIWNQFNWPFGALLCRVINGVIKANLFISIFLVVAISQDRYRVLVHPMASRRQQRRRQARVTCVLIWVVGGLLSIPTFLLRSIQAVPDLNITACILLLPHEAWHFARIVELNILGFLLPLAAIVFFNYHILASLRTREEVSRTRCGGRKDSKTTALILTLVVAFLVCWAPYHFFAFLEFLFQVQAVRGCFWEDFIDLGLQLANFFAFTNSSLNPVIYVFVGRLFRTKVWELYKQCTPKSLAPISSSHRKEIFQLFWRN
Method in brief: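 CHO-K1 hB1-D1 cells, dye-loaded, given compounds (8 concentrations, triplicate, 1% DMSO) 30 min at 28° C, then stimulated with selective B1 agonist peptide; Ca2+ fluorescence read at 538 nm on FLIPR. Peak response normalised to DMSO and 20 µM Lys-(Des-Arg-Leu)-Bradykinin full inhibition; IC50 fitted.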

[2] = molecular target: T2, native human Bradykinin B1 receptor (Homo sapiens, UniProt P46663); assay: Calcium flux assay (FLIPR) with IMR-90 human fibroblasts expressing Bradykinin B1 receptor after IL-1beta induction (hB1 IMR-90); assay type: cell-based; settings: IMR-90 human fibroblasts after IL-1beta induction, read-out: hB1 IMR90 IC50
T2 construct: which express native human Bradykinin B1 receptor after induction with human IL-1beta; Coriell Institute; host or cells: IMR-90 human foetal lung fibroblasts, induced with human IL-1beta
T2 sequence (P46663 1-353): T1 sequence (P46663 1-353)
Procedure: Calcium Flux Assay (FLIPR) with Human Fibroblasts Expressing Bradykinin B1 Receptor (hB1 IMR-90)
The Calcium flux Assay was carried out utilising IMR-90 human foetal lung fibroblasts (American Type Culture Collection, Rockville, MD; and Coriell Institute, Camden, New Jersey), which express native human Bradykinin B1 receptor after induction with human IL-1beta.
The fibroblasts were cultured in complete growth media comprised of Dulbecco's modified Eagle's medium (DMEM; Sigma) containing 10% foetal bovine serum, 4 mM L-glutamine, and 1% nonessential amino acids. The cells were maintained in a humidified atmosphere with 5% CO2 at 37° C. and were sub-cultured at a ratio of 1:3, every other day.
For the assay, IMR-90 fibroblasts were harvested using TrypLE Express (GIBCO/Invitrogen) and seeded into 384-well plates (Corning Cellbinding Surface, Cat. 3683) at a density of 15000 cells/well. The following day, cells were treated with 0.35 ng/mL human IL-1beta in 10% FBS/MEM for 3 h to up-regulate Bradykinin B1 receptor. Induced cells were loaded with fluorescent calcium indicator by incubation with 2.5 μM Fluo-4/AM (Invitrogen) at 37° C., 5% CO2 for 2 h in the presence of 2.5 mM probenecid in 1% FBS/MEM. […] Compound examples were assayed at 8 concentrations in triplicate. […] A peptide antagonist Lys-(Des-Arg-Leu)-Bradykinin (Bachem, Brackley) at 20 µM was used to determine the full inhibition as control. IC50 values were determined by the same way described for the FLI PR assay with recombinant cells.

pIC50 [1] | pIC50 [2] | SMILES
5.60 | 5.77 | CCC(F)(F)c1ccc(-c2ccc(NC(=O)C3(c4ccc(F)c(F)c4)CC3)cc2C(=O)O)cn1 [Example 20, 5-({[1-(3,4-Difluorophenyl)cyclopropyl]carbonyl}amino)-2-[6-(1,1-difluoropropyl)pyridin-3-yl]benzoic acid]
7.85 | 8.23 | Cc1ccc(C2(C(=O)Nc3cc(F)c(-c4cnn(C5CCC5)c4)c(C(=O)O)c3)CC2)c(F)c1 [Example 25, 2-(1-Cyclobutyl-1H-pyrazol-4-yl)-3-fluoro-5-({[1-(2-fluoro-4-methylphenyl)cyclopropyl]carbonyl}amino)benzoic acid]
6.85 | 6.89 | CCC(F)(F)c1ccc(-c2ccc(NC(=O)C3(c4ccc(C)cc4F)CC3)cc2C(=O)O)cn1 [Example 26, 2-[6-(1,1-Difluoropropyl)pyridin-3-yl]-5-({[1-(2-fluoro-4-methylphenyl)cyclopropyl]carbonyl}amino)benzoic acid]
7.48 | 7.14 | CCC(F)(F)c1ccc(-c2ccc(NC(=O)C3(c4ccc(OC(F)(F)F)cc4F)CC3)cc2C(=O)O)cn1 [Example 27, 2-[6-(1,1-Difluoropropyl)pyridin-3-yl]-5-[({1-[2-fluoro-4-(trifluoromethoxy)phenyl]cyclopropyl}carbonyl)amino]benzoic acid]
6.52 | 6.34 | O=C(O)c1cc(NC(=O)C2(c3cccc(Cl)c3)CC2)ccc1-c1cnn(C2CCC2)c1 [Example 28, 5-({[1-(3-Chlorophenyl)cyclopropyl]carbonyl}amino)-2-(1-cyclobutyl-1H-pyrazol-4-yl)benzoic acid]
8.22 | 7.85 | O=C(O)c1cc(NC(=O)C2(c3ccc(C(F)(F)F)cc3)CC2)cc(F)c1-c1cnn(C2CCC2)c1 [Example 36, 2-(1-Cyclobutyl-1H-pyrazol-4-yl)-3-fluoro-5-[({1-[4-(trifluoromethyl)phenyl]cyclopropyl}carbonyl)amino]benzoic acid]
7.70 | 8.25 | O=C(O)c1cc(NC(=O)C2(c3ccc(OC(F)(F)F)cc3)CC2)cc(F)c1-c1cnn(C2CCC2)c1 [Example 37, 2-(1-Cyclobutyl-1H-pyrazol-4-yl)-3-fluoro-5-[({1-[4-(trifluoromethoxy)phenyl]cyclopropyl}carbonyl)amino]benzoic acid]
7.74 | 8.21 | O=C(O)c1cc(NC(=O)C2(c3ccc(C(F)(F)F)c(F)c3)CC2)cc(F)c1-c1cnn(C2CCC2)c1 [Example 39, 2-(1-Cyclobutyl-1H-pyrazol-4-yl)-3-fluoro-5-[({1-[3-fluoro-4-(trifluoromethyl)phenyl]cyclopropyl}carbonyl)amino]benzoic acid]
7.80 | 7.96 | O=C(O)c1cc(NC(=O)C2(c3ccc(F)cc3F)CC2)cc(F)c1-c1cnn(C2CCC2)c1 [Example 40, 2-(1-Cyclobutyl-1H-pyrazol-4-yl)-5-({[1-(2,4-difluorophenyl)cyclopropyl]carbonyl}amino)-3-fluorobenzoic acid]
8.06 | 8.43 | O=C(O)c1cc(NC(=O)C2(c3ccc(Cl)cc3F)CC2)cc(F)c1-c1cnn(C2CCC2)c1 [Example 41, 5-({[1-(4-Chloro-2-fluorophenyl)cyclopropyl]carbonyl}amino)-2-(1-cyclobutyl-1H-pyrazol-4-yl)-3-fluorobenzoic acid]
7.35 | 7.24 | O=C(O)c1cc(NC(=O)C2(c3ccc(F)cn3)CC2)cc(F)c1-c1cnn(C2CCC2)c1 [Example 44, 2-(1-Cyclobutyl-1H-pyrazol-4-yl)-3-fluoro-5-({[1-(5-fluoropyridin-2-yl)cyclopropyl]carbonyl}amino)benzoic acid]
7.77 | 7.72 | O=C(O)c1cc(NC(=O)C2(c3ccc(OC(F)(F)F)cc3F)CC2)ccc1-c1cnn(C2CCC2)c1 [Example 51, 2-(1-Cyclobutyl-1H-pyrazol-4-yl)-5-[({1-[2-fluoro-4-(trifluoromethoxy)phenyl]cyclopropyl}carbonyl)amino]benzoic acid]
7.49 | 7.82 | O=C(O)c1cc(NC(=O)C2(c3ccc(Cl)cc3F)CC2)ccc1-c1cnn(C2CCC2)c1 [Example 53, 5-({[1-(4-Chloro-2-fluorophenyl)cyclopropyl]carbonyl}amino)-2-(1-cyclobutyl-1H-pyrazol-4-yl)benzoic acid]
7.59 | 7.66 | O=C(O)c1cc(NC(=O)C2(c3cc(Cl)ccc3F)CC2)ccc1-c1cnn(C2CCC2)c1 [Example 54, 5-({[1-(5-Chloro-2-fluorophenyl)cyclopropyl]carbonyl}amino)-2-(1-cyclobutyl-1H-pyrazol-4-yl)benzoic acid]
7.21 | 7.39 | CC(C)(C)c1cn(-c2ccc(NC(=O)C3(c4ccc(C(F)(F)F)cc4F)CC3)cc2C(=O)O)cn1 [Example 67, 2-(4-tert-Butyl-1H-imidazol-1-yl)-5-[({1-[2-fluoro-4-(trifluoromethyl)phenyl]cyclopropyl}carbonyl)amino]benzoic acid]
7.47 | 7.31 | CC(C)n1cc(-c2ccc(NC(=O)C3(c4ccc(C(F)(F)F)cc4F)CC3)cc2C(=O)O)cn1 [Example 70, 5-[({1-[2-Fluoro-4-(trifluoromethyl)phenyl]cyclopropyl}carbonyl)amino]-2-[1-(propan-2-yl)-1H-pyrazol-4-yl]benzoic acid]
7.68 | 7.36 | CC(C)(C)n1cc(-c2ccc(NC(=O)C3(c4ccc(OC(F)(F)F)cc4F)CC3)cc2C(=O)O)cn1 [Example 73, 2-(1-tert-Butyl-1H-pyrazol-4-yl)-5-[({1-[2-fluoro-4-(trifluoromethoxy)phenyl]cyclopropyl}carbonyl)amino]benzoic acid]
7.77 | 7.82 | CC(C)Cn1cc(-c2ccc(NC(=O)C3(c4ccc(C(F)(F)F)cc4F)CC3)cc2C(=O)O)cn1 [Example 74, 5-[({1-[2-Fluoro-4-(trifluoromethyl)phenyl]cyclopropyl}carbonyl)amino]-2-[1-(2-methylpropyl)-1H-pyrazol-4-yl]benzoic acid]
7.96 | 7.74 | CC(C)Cn1cc(-c2ccc(NC(=O)C3(c4ccc(OC(F)(F)F)cc4F)CC3)cc2C(=O)O)cn1 [Example 75, 5-[({1-[2-Fluoro-4-(trifluoromethoxy)phenyl]cyclopropyl}carbonyl)amino]-2-[1-(2-methylpropyl)-1H-pyrazol-4-yl]benzoic acid]
7.77 | 7.89 | CC(C)(C)Cn1cc(-c2ccc(NC(=O)C3(c4ccc(OC(F)(F)F)cc4F)CC3)cc2C(=O)O)cn1 [Example 77, 2-[1-(2,2-Dimethylpropyl)-1H-pyrazol-4-yl]-5-[({1-[2-fluoro-4-(trifluoromethoxy)phenyl]cyclopropyl}carbonyl)amino]benzoic acid]
7.49 | 8.00 | CC(C)n1cc(-c2c(F)cc(NC(=O)C3(c4ccc(C(F)(F)F)cc4F)CC3)cc2C(=O)O)cn1 [Example 88, 3-Fluoro-5-[({1-[2-fluoro-4-(trifluoromethyl)phenyl]cyclopropyl}carbonyl)amino]-2-[1-(propan-2-yl)-1H-pyrazol-4-yl]benzoic acid]
7.49 | 7.85 | CC(C)n1cc(-c2c(F)cc(NC(=O)C3(c4ccc(OC(F)(F)F)cc4F)CC3)cc2C(=O)O)cn1 [Example 89, 3-Fluoro-5-[({1-[2-fluoro-4-(trifluoromethoxy)phenyl]cyclopropyl}carbonyl)amino]-2-[1-(propan-2-yl)-1H-pyrazol-4-yl]benzoic acid]
7.70 | 8.12 | CC(C)(C)c1cn(-c2c(F)cc(NC(=O)C3(c4ccc(OC(F)(F)F)cc4F)CC3)cc2C(=O)O)cn1 [Example 91, 2-(4-tert-Butyl-1H-imidazol-1-yl)-3-fluoro-5-[({1-[2-fluoro-4-(trifluoromethoxy)phenyl]cyclopropyl}carbonyl)amino]benzoic acid]
